From patent USRE39181E1, “Aqueous risperidone formulations” (priority 1994, dated 2006) come the findings set out here.

For this data set the following is noted: room temperature.

For risperidone tartrate, the “solubility relative to risperidone hydrochloride” value is given as “about 4 times”. Moreover, under “aqueous media”, the solubility result is “about 80 mg/ml”.
